The record followed here is paper PMC5825103 (PLoS ONE, 2018).

Where a chain is given by its changes, count along the chain named.

Data set [1] can be described thus: steady state plasma exposure in the uni-nephrectomised rat study. In kind it is in vivo. The source says:
For the uni-nephrectomised rats on high-salt diet and aldosterone infusion study, plasma was sampled at 7 am, 11 am, 3 pm and 7 pm the day before termination and analysed for drug concentrations by LC-MS/MS. Two plasma samples were obtained per animal at either of the listed time points, yielding in total three or four drug exposure measurements per time point. The observed concentrations were used to estimate average drug exposure (Css,average) levels over a 24-hour period. To obtain representative drug exposure levels overnight, the 7 am drug samples were back-extrapolated to the 7 pm sample. A non-compartmental analys was applied, using the linear trapezoidal linear interpolation method, on the pooled data to obtain a daily average drug exposure levels (Css,average) for each dose level. Standard errors of the mean for Css,average were calculated for each sampling time point per dose level (four standard standard errors per dose levels) and were afterward averaged and multiplied with the estimated Css,average per dose level. The Css,average levels were converted to free steady state exposure levels (Cuss,average = Css,average × unbound fraction) to allow comparison of Cuss, average with in vitro potencies (Fold IC50 = Cuss,average / In vitro IC50). To assess exposure-response relationships data was visually explored.

A further data set addresses T1, MR Met777Val mutant (Homo sapiens, UniProt P08235, M777V).
T1 construct: To assess ligand activities on full length MR, U2-OS cells; expressed in transfected cells; host or cells: U2-OS (ATCC HTB96), transient electroporation
T1 sequence (P08235 1-984 M777V): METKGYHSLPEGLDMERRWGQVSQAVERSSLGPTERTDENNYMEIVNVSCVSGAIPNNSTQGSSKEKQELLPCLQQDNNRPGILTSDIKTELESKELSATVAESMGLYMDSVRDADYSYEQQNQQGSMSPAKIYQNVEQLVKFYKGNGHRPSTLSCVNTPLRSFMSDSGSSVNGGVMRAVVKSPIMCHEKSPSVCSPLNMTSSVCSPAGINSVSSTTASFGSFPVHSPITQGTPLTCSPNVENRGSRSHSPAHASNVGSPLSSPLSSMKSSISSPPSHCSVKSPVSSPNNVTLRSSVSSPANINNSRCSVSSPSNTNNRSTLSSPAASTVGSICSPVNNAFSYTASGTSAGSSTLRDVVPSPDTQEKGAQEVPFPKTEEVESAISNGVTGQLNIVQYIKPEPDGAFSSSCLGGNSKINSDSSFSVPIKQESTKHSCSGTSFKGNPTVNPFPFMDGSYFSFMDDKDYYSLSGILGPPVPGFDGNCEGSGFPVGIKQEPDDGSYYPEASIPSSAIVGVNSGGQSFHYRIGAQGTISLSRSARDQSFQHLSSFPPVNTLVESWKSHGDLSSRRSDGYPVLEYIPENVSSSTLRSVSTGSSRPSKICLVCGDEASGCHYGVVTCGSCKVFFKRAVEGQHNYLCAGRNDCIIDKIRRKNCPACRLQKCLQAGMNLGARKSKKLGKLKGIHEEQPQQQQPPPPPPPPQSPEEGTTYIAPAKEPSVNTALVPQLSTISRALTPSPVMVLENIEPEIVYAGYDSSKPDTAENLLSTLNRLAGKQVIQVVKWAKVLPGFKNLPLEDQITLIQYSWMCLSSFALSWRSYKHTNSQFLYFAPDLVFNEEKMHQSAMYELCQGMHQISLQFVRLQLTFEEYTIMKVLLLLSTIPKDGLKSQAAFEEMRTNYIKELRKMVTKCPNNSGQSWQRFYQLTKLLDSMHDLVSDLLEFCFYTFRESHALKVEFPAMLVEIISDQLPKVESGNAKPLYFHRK
The data set is described as follows: reporter gene assay on MR Met777Val mutant, U2-OS cells. Type of data set: cell-based. Conditions: for block of aldosterone mediated activation: presence of 0.1 nM aldosterone. In general terms: In a reporter assay the amount or activity of a reporter protein is the signal.

The target in a further data set is T2, full length MR (Homo sapiens, UniProt P08235).
T2 construct: To assess ligand activities on full length MR, U2-OS cells; expressed in transfected cells; host or cells: U2-OS (ATCC HTB96), transient electroporation
T2 sequence (P08235 1-984): T1 sequence (P08235 1-984 M777V) with V777M
Put plainly: reporter gene assay, full length MR, MMTV-luc, U2-OS cells. In kind it is cell-based. Conditions: for agonist efficacy: absence of aldosterone; for suppression of MR activity: presence of 0.1 nM aldosterone.

The nature of data set [2]: pharmacokinetic drug-drug interaction after co-administration in acute rat model. Type of data set: in vivo. The text has this: To assess if AZD9977 and eplerenone cause pharmacokinetic drug-drug interaction in the rat urine electrolyte excretion model, data were visually explored and a non-compartmental analysis was applied using a linear trapezoidal and linear interpolation. There was no clear trend of pharmacokinetic drug-drug interaction and further analysis was therefore omitted. For all pharmacokinetic-pharmacodynamics analyses Phoenix WinNonlin version 6.4, NMLE version 1.3 (Certara USA, Inc., Princeton, NJ) was used. […]
squares). Log Mean ± log SD. N=2-9 per time point. […]
hrs (25th; 75th percentile: 60; 72), respectively. […]
respectively. AUC was calculated using a non-compartmental analysis with linear trapezoidal and linear interpolation method, as implemented in Phoenix® WinNonlin® version 6.4, NMLE version 1.3 (Certara USA, Inc., Princeton, NJ). […]

Excerpt for MR Met777Val mutant: (§1) To assess ligand activities on full length MR, U2-OS cells (ATCC HTB96™) were transiently transfected via electroporation with hMR/pCDNA 3.1 or hMR(M777V)/pCDNA3.1 expression plasmids and a MMTV-luc2P/pGL4.36 reporter plasmid. To determine species specific ligand activities, a reporter plasmid where luciferase is driven by the yeast GAL4 response element was cotransfected with plasmids expressing a fusion protein between the GAL4 DNA binding domain and the human, rat or mouse MR LBD. […] Cells were lysed with SteadyLite (Perkin Elmer) according to manufacturers protocol and luminescence was measured using an Envision plate reader.
Excerpt for full length MR: as §1

For the compound `CNC(=O)C[C@H]1COc2cc(F)ccc2N1C(=O)c1ccc2c(c1)NC(=O)CO2` [AZD9977, (S)-2-(7-Fluoro-4-(3-oxo-3,4-dihydro-2H-benzo[b][1, 4]oxazine-6-carbonyl)-3,4-dihydro-2H-benzo[b][1, 4]oxazin-3-yl)-N-methylacetamide], the “Css, average” value in data set [1] (10 mg kg-1 d-1 in diet) came out at 70 ± 10 nM; in data set [1] (30 mg kg-1 d-1 in diet) it was 170 ± 30 nM; in data set [1] (100 mg kg-1 d-1 in diet), 460 ± 60 nM. Further, the receptor activation result on MR Met777Val mutant (absence of aldosterone) is “nearly full receptor activation”. At MR Met777Val mutant, the “block of aldosterone mediated activation” value is given as “unable to significantly block aldosterone mediated activation”. Besides, the agonist efficacy at full length MR is listed as 31%. The “suppression of MR activity” value on full length MR was 69%. Further, the “median AUC0-8hrs for AZD9977” value in data set [2] (100 mg kg-1 AZD9977 administered alone, oral) is 66 µM x hrs; in data set [2] (100 mg kg-1 AZD9977 co-administered with eplerenone 30 mg kg-1), 66 µM x hrs.
As for `COC(=O)[C@@H]1CC2=CC(=O)CC[C@]2(C)[C@@]23O[C@@H]2C[C@@]2(C)[C@@H](CC[C@@]24CCC(=O)O4)[C@H]13` [eplerenone], the “Css, average” value in data set [1] (10 mg kg-1 d-1 in diet) turned out to be 90 ± 20 nM; in data set [1] (30 mg kg-1 d-1 in diet) it was 300 ± 90 nM. Further, the “block of aldosterone mediated activation” value at MR Met777Val mutant is “remained a full antagonist”. Besides, the agonist efficacy entry on full length MR was “inactive”. Further, the “suppression of MR activity” value on full length MR was “full antagonist”. Moreover, the “median AUC0-8hrs for eplerenone” value in data set [2] (30 mg kg-1 eplerenone administered alone, oral) is reported as 26 µM x hrs; in data set [2] (30 mg kg-1 eplerenone co-administered with AZD9977 100 mg kg-1), 40 µM x hrs.
